Measurements: US20100311714A1, “1H-IMIDAZO[4,5-c]QUINOLINONE COMPOUNDS” (priority 2009, published 2010)
Read-outs that look alike come from different tables or passages of the source.

Experiments:
PI3K alfa = target: T1, PI3K alfa (Homo sapiens, UniProt P42336); test: PI3K alpha kinase assay (Kinase-Glo luminescence); assay type: biochemical
T1 construct: His tag (C); made in house; host or cells: baculovirus BV1075; Tn5 (Trichoplusia ni) or TiniPro insect cells
How it was run: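 IC50 values come from a four-parameter logistic fit of percent inhibition at eight concentrations, typically 10 to 0.003 μM. Recombinant PI3Kα at 10 nM turned over 1 μM ATP with 10 μg/mL PI for 60 min at room temperature, and residual ATP was measured by Kinase-Glo.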

[1] = system: S6 Ribosomal Protein phosphorylation Ser235/236 in TSC1 null mouse embryo fibroblast (MEF) cells; test: Reverse protein array, S6 Ribosomal Protein phosphorylation in TSC1 null MEF cells; assay type: cell-based; settings: 1 h, TSC1-/- MEFs, 60 minutes
How it was run: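 Phospho-S6 (Ser235/236) was quantified by reverse protein array of cell lysates with a phospho-specific primary antibody. […]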

T1 sequence (P42336 with tags, fused parts or gaps limits assumed): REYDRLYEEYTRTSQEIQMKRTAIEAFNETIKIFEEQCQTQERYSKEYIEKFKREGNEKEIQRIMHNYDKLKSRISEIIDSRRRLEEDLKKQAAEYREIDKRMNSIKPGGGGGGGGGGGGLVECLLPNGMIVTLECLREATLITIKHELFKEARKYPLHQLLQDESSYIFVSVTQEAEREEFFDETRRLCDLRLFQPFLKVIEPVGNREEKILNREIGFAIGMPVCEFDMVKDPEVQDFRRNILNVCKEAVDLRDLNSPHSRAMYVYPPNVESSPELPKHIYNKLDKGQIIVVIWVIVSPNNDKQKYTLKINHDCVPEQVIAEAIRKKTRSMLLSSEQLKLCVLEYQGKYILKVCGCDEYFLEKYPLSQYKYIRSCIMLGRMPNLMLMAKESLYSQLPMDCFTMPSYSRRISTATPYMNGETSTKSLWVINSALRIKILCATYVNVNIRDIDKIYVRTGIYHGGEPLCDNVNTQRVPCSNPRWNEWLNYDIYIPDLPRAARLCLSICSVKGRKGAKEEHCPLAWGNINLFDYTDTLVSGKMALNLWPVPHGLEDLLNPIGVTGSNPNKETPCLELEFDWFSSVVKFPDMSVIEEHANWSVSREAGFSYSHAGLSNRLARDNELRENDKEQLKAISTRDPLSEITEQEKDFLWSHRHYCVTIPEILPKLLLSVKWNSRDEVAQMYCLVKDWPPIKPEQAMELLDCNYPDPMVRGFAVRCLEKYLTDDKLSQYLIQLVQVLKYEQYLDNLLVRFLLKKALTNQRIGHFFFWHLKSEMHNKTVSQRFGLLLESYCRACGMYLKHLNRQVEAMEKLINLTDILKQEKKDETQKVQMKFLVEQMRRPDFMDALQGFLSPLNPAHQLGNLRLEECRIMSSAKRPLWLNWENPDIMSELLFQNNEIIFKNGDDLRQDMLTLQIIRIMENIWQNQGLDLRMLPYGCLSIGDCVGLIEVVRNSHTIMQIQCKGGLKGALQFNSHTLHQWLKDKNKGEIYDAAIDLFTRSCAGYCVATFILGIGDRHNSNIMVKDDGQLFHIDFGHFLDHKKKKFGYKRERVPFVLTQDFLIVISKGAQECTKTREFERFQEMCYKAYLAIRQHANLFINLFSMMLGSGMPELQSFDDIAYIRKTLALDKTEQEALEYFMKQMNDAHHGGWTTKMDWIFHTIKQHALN

| Structure (SMILES) | IC50 (PI3K alfa; read-out: PI3Kalfa/IC50) | IC50 (PI3K alfa; read-out: EPK_PI3Kalfa/IC50) | IC50 ([1]; read-out: p-S6) | IC50 ([1]; read-out: p-S6 IC50) |
| --- | --- | --- | --- | --- |
| Cc1ncccc1-n1c(=O)n(C)c2cnc3ccc(-c4cnc(N(C)C)nc4)cc3c21 [Example 2.15, 8-(2-Dimethylamino-pyrimidin-5-yl)-3-methyl-1-(2-methyl-pyridin-3-yl)-1,3-dihydro-imidazo[4,5-c]quinolin-2-one] | 35 nM |  | 68.2 nM |  |
| COc1ncccc1-n1c(=O)n(C)c2cnc3ccc(-c4ccc(C(N)=O)cc4)cc3c21 [Example 1.6, 4-[1-(2-Methoxy-pyridin-3-yl)-3-methyl-2-oxo-2,3-dihydro-1H-imidazo[4,5-c]quinolin-8-yl]-benzamide] | 17 nM |  | 21.9 nM |  |
| Cc1cccnc1-n1c(=O)n(C)c2cnc3ccc(-c4ccc(C(N)=O)cc4)cc3c21 [Example 3.3, 4-[3-Methyl-1-(3-methyl-pyridin-2-yl)-2-oxo-2,3-dihydro-1H-imidazo[4,5-c]quinolin-8-yl]-benzamide] | 51 nM |  | 297 nM |  |
| Cc1nc(F)ccc1-n1c(=O)n(C)c2cnc3ccc(-c4cnc(N)c(C(F)(F)F)c4)cc3c21 [Example 7.1, 8-(6-Amino-5-trifluoromethyl-pyridin-3-yl)-1-(6-fluoro-2-methyl-pyridin-3-yl)-3-methyl-1,3-dihydro-imidazo[4,5-c]quinolin-2-one] | 4 nM |  | 2.23 nM |  |
| CNc1cncc(-c2ccc3ncc4c(c3c2)n(-c2cccnc2C)c(=O)n4C)c1 [Example 2.26, 3-Methyl-8-(5-methylamino-pyridin-3-yl)-1-(2-methyl-pyridin-3-yl)-1,3-dihydro-imidazo[4,5-c]quinolin-2-one] |  | 14 nM |  | 6 nM |
| COc1cc(-c2ccc3ncc4c(c3c2)n(-c2cccnc2C)c(=O)n4C)cnc1C(OC)OC [Example 2.27, 8-(6-Dimethoxymethyl-5-methoxy-pyridin-3-yl)-3-methyl-1-(2-methyl-pyridin-3-yl)-1,3-dihydro-imidazo[4,5-c]quinolin-2-one] |  | 80 nM |  | 54 nM |

Further lines, with some results ahead:

| IC50 (PI3K alfa; read-out: PI3Kalfa/IC50) | IC50 (PI3K alfa; read-out: EPK_PI3Kalfa/IC50) | Structure (SMILES) | IC50 ([1]; read-out: p-S6) | IC50 ([1]; read-out: p-S6 IC50) |
| --- | --- | --- | --- | --- |
|  | 49 nM | CNc1ncc(-c2ccc3ncc4c(c3c2)n(-c2ccc(N3CC(F)(F)C3)nc2C)c(=O)n4C)cn1 [Example 24.1, 1-[6-(3,3-Difluoro-azetidin-1-yl)-2-methyl-pyridin-3-yl]-3-methyl-8-(2-methylamino-pyrimidin-5-yl)-1,3-dihydro-imidazo[4,5-c]quinolin-2-one] |  | 2 nM |
|  | 32 nM | COc1ncc(-c2ccc3ncc4c(c3c2)n(-c2ccc(N3CC[C@H](O)C3)nc2C)c(=O)n4C)c(OC)n1 [Example 32.3, 8-(2,4-Dimethoxy-pyrimidin-5-yl)-1-[6-((S)-3-hydroxy-pyrrolidin-1-yl)-2-methyl-pyridin-3-yl]-3-methyl-1,3-dihydro-imidazo[4,5-c]quinolin-2-one] |  | 4 nM |
